From US20160038468A1 (priority 2013, published 2016)
Values after ≈ are worked out from the molar mass of the structure shown. Like-named read-outs stand apart in the source and are kept apart here.

Key:
Prevotella bivia = test: Agar dilution MIC (CLSI), Prevotella bivia vaginal isolates; assay type: cell-based; conditions: for MIC: read-out: Minimal Inhibitory Concentration (MIC)
Prevotella amnii = test: Agar dilution MIC (CLSI), Prevotella amnii vaginal isolates; assay type: cell-based; conditions: for MIC: read-out: Minimal Inhibitory Concentration (MIC)

## Cc1ncc([N+](=O)[O-])n1CCO [Metronidazole]
Prevotella bivia; MIC […] μg/ml, 34 samples
  Number of strains with indicated MIC: 15
Prevotella bivia; Prevotella bivia, isolate 601096 25
  MIC: 4 µg/mL (≈ 23.4 µM)
Prevotella bivia; Prevotella bivia, isolate 601166 M
  MIC: 16 µg/mL (≈ 93.5 µM)
Prevotella bivia; Prevotella bivia, isolate 601202 21
  MIC: 16 µg/mL (≈ 93.5 µM)
Prevotella bivia; Prevotella bivia, isolate 601203 5
  MIC: 4 µg/mL (≈ 23.4 µM)
Prevotella bivia; Prevotella bivia, isolate 601209 A1
  MIC: 4 µg/mL (≈ 23.4 µM)
Prevotella bivia; Prevotella bivia, isolate 601212 9
  MIC: 4 µg/mL (≈ 23.4 µM)
Prevotella bivia; Prevotella bivia, isolate 601213 9A
  MIC: 16 µg/mL (≈ 93.5 µM)
Prevotella bivia; Prevotella bivia, isolate 601214 B
  MIC: 16 µg/mL (≈ 93.5 µM)
Prevotella bivia; Prevotella bivia, isolate 601241 13
  MIC: 4 µg/mL (≈ 23.4 µM)
Prevotella bivia; Prevotella bivia, isolate 601243 15
  MIC: 16 µg/mL (≈ 93.5 µM)
Prevotella bivia; Prevotella bivia, isolate 601255 10
  MIC: 4 µg/mL (≈ 23.4 µM)
Prevotella bivia; Prevotella bivia, isolate 601261 C
  MIC: 4 µg/mL (≈ 23.4 µM)
Prevotella bivia; Prevotella bivia, isolate 601283 20
  MIC: 16 µg/mL (≈ 93.5 µM)
Prevotella bivia; Prevotella bivia, isolate 601285 14
  MIC: 4 µg/mL (≈ 23.4 µM)
Prevotella bivia; Prevotella bivia, isolate 601293 22
  MIC: 8 µg/mL (≈ 46.7 µM)
Prevotella bivia; Prevotella bivia, isolate 601305 H
  MIC: 16 µg/mL (≈ 93.5 µM)
Prevotella bivia; Prevotella bivia, isolate 601340 31
  MIC: 4 µg/mL (≈ 23.4 µM)
Prevotella bivia; Prevotella bivia, isolate 601355 B
  MIC: 8 µg/mL (≈ 46.7 µM)
Prevotella bivia; Prevotella bivia, isolate 601367 M
  MIC: 8 µg/mL (≈ 46.7 µM)
Prevotella bivia; Prevotella bivia, isolate 601374 A1
  MIC: 16 µg/mL (≈ 93.5 µM)
Prevotella bivia; Prevotella bivia, isolate 601378 B
  MIC: 16 µg/mL (≈ 93.5 µM)
Prevotella bivia; Prevotella bivia, isolate 601379 19
  MIC: 16 µg/mL (≈ 93.5 µM)
Prevotella bivia; Prevotella bivia, isolate 601388 T
  MIC: 4 µg/mL (≈ 23.4 µM)
Prevotella bivia; Prevotella bivia, isolate 601389 10
  MIC: 4 µg/mL (≈ 23.4 µM)
Prevotella bivia; Prevotella bivia, isolate 601389 J
  MIC: 4 µg/mL (≈ 23.4 µM)
Prevotella bivia; Prevotella bivia, isolate 601392 14
  MIC: 4 µg/mL (≈ 23.4 µM)
Prevotella bivia; Prevotella bivia, isolate 601409 V
  MIC: 4 µg/mL (≈ 23.4 µM)
Prevotella bivia; Prevotella bivia, isolate 601410 12
  MIC: 4 µg/mL (≈ 23.4 µM)
Prevotella bivia; Prevotella bivia, isolate 601429 1
  MIC: 8 µg/mL (≈ 46.7 µM)
Prevotella bivia; Prevotella bivia, isolate 601433 19
  MIC: 8 µg/mL (≈ 46.7 µM)
Prevotella bivia; Prevotella bivia, isolate 601449 E
  MIC: 16 µg/mL (≈ 93.5 µM)
Prevotella bivia; Prevotella bivia, isolate 601453 A
  MIC: 8 µg/mL (≈ 46.7 µM)
Prevotella bivia; Prevotella bivia, isolate 601455 D1
  MIC: 16 µg/mL (≈ 93.5 µM)
Prevotella bivia; Prevotella bivia, isolate 601458 16
  MIC: 16 µg/mL (≈ 93.5 µM)
Prevotella bivia; Prevotella bivia, # tested 34
  MIC50: 8 µg/mL (≈ 46.7 µM)
  MIC90: 16 µg/mL (≈ 93.5 µM)
Prevotella bivia; number (%) of isolates, # tested 34
  Susceptible: 21 (62) μg/ml
Prevotella amnii; # tested 33
  MIC Range: 0.25 to 2 µg/mL
Prevotella amnii; MIC […], 33 samples
  Number of strains with indicated MIC: 1
Prevotella amnii; Prevotella amnii, isolate 601203 4
  MIC: 1 µg/mL (≈ 5.84 µM)
Prevotella amnii; Prevotella amnii, isolate 601256 11
  MIC: 1 µg/mL (≈ 5.84 µM)
Prevotella amnii; Prevotella amnii, isolate 601258 25
  MIC: 0.5 µg/mL (≈ 2.92 µM)
Prevotella amnii; Prevotella amnii, isolate 601261 E
  MIC: 1 µg/mL (≈ 5.84 µM)
Prevotella amnii; Prevotella amnii, isolate 601266 20
  MIC: 0.5 µg/mL (≈ 2.92 µM)
Prevotella amnii; Prevotella amnii, isolate 601278 10
  MIC: 1 µg/mL (≈ 5.84 µM)
Prevotella amnii; Prevotella amnii, isolate 601287 HH
  MIC: 0.5 µg/mL (≈ 2.92 µM)
Prevotella amnii; Prevotella amnii, isolate 601291 41
  MIC: 1 µg/mL (≈ 5.84 µM)
Prevotella amnii; Prevotella amnii, isolate 601293 29
  MIC: 1 µg/mL (≈ 5.84 µM)
Prevotella amnii; Prevotella amnii, isolate 601305 A
  MIC: 2 µg/mL (≈ 11.7 µM)
Prevotella amnii; Prevotella amnii, isolate 601311 K
  MIC: 0.5 µg/mL (≈ 2.92 µM)
Prevotella amnii; Prevotella amnii, isolate 601314 19
  MIC: 2 µg/mL (≈ 11.7 µM)
Prevotella amnii; Prevotella amnii, isolate 601318 G
  MIC: 1 µg/mL (≈ 5.84 µM)
Prevotella amnii; Prevotella amnii, isolate 601336 33
  MIC: 1 µg/mL (≈ 5.84 µM)
Prevotella amnii; Prevotella amnii, isolate 601340 37
  MIC: 2 µg/mL (≈ 11.7 µM)
Prevotella amnii; Prevotella amnii, isolate 601341 H
  MIC: 1 µg/mL (≈ 5.84 µM)
Prevotella amnii; Prevotella amnii, isolate 601350 A
  MIC: 0.5 µg/mL (≈ 2.92 µM)
Prevotella amnii; Prevotella amnii, isolate 601365 6
  MIC: 0.25 µg/mL (≈ 1.46 µM)
Prevotella amnii; Prevotella amnii, isolate 601368 24
  MIC: 0.5 µg/mL (≈ 2.92 µM)
Prevotella amnii; Prevotella amnii, isolate 601369 13
  MIC: 2 µg/mL (≈ 11.7 µM)
Prevotella amnii; Prevotella amnii, isolate 601375 L
  MIC: 1 µg/mL (≈ 5.84 µM)
Prevotella amnii; Prevotella amnii, isolate 601377 9
  MIC: 1 µg/mL (≈ 5.84 µM)
Prevotella amnii; Prevotella amnii, isolate 601379 24
  MIC: 1 µg/mL (≈ 5.84 µM)
Prevotella amnii; Prevotella amnii, isolate 601388 G
  MIC: 1 µg/mL (≈ 5.84 µM)
Prevotella amnii; Prevotella amnii, isolate 601399 10
  MIC: 1 µg/mL (≈ 5.84 µM)
Prevotella amnii; Prevotella amnii, isolate 601405 A
  MIC: 1 µg/mL (≈ 5.84 µM)
Prevotella amnii; Prevotella amnii, isolate 601411 L
  MIC: 1 µg/mL (≈ 5.84 µM)
Prevotella amnii; Prevotella amnii, isolate 601413 10
  MIC: 1 µg/mL (≈ 5.84 µM)
Prevotella amnii; Prevotella amnii, isolate 601418 27
  MIC: 1 µg/mL (≈ 5.84 µM)
Prevotella amnii; Prevotella amnii, isolate 601426 A
  MIC: 1 µg/mL (≈ 5.84 µM)
Prevotella amnii; Prevotella amnii, isolate 601430 14
  MIC: 1 µg/mL (≈ 5.84 µM)
Prevotella amnii; Prevotella amnii, isolate 601434 13
  MIC: 0.5 µg/mL (≈ 2.92 µM)
Prevotella amnii; Prevotella amnii, isolate 601458 13
  MIC: 1 µg/mL (≈ 5.84 µM)
Prevotella amnii; Prevotella amnii, # tested 33
  MIC50: 1 µg/mL (≈ 5.84 µM)
  MIC90: 2 µg/mL (≈ 11.7 µM)
